Laboratory results from patent publication US9518018B2, “3-alkoxy, thioalkyl and amino-4-amino-6-(substituted)picolinates and their use as herbicides” (Dow AgroSciences LLC, priority 2011, dated 2016).
Read-outs that look alike come from different tables or passages of the source.

Legend:
[1] = tested on: ORYSA: rice (Oryza sativa); test: Post-Emergent Test I herbicidal activity; format: in vivo; details: post-emergence, 336 h, Table 3, 140 g ai/ha, read-out: Visual Growth Reduction (%)-14 Days after Application ORYSA
Outline: (§1)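 Greenhouse plants at first-second true leaf stage sprayed post-emergence by track sprayer at 187 L/ha with compound in acetone/DMSO/water/isopropanol carrier with crop oil concentrate and Triton X-155, top rate plus ½× to 1/16× serial rates. Injury scored visually at 14 d, 0-100% versus untreated plants; GR20, GR50, GR80 from probit analysis.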

[2] = tested on: ABUTH: velvetleaf (Abutilon theophrasti); test: Post-Emergent Test I herbicidal activity; format: in vivo; details: for pest or weed control at 140 g/ha / pest or weed control at 8.75 g/ha / pest or weed control at 17.5 g/ha / pest or weed control at 35 g/ha / pest or weed control at 70 g/ha: Abutilon theophrasti, post-emergence, 336 h, read-out: Visual Growth Reduction (%)-14 Days after Application ABUTH; for pest or weed control at 8.75 g/ha: Table 4, 8.75 g ai/ha; for pest or weed control at 17.5 g/ha: Table 4, 17.5 g ai/ha; for pest or weed control at 35 g/ha: Table 4, 35 g ai/ha; for pest or weed control at 70 g/ha: Table 4, 70 g ai/ha; for GR20 ABUTH: Table 4, growth reduction of 20% of plant growth; for GR20 ABUTH / GR50 ABUTH / GR80 ABUTH: 14 days after application, probit analysis; for GR50 ABUTH: Table 4, growth reduction of 50% of plant growth; for GR80 ABUTH: Table 4, growth reduction of 80% of plant growth
Outline: as §1

[3] = tested on: ECHCG: barnyardgrass (Echinochloa crus-galli); test: Post-Emergent Test I herbicidal activity; format: in vivo; details: post-emergence, 336 h, Table 3, 140 g ai/ha, read-out: Visual Growth Reduction (%)-14 Days after Application ECHCG
Outline: as §1

[4] = tested on: EPHHL: wild poinsettia (Euphorbia heterophylla); test: Post-Emergent Test I herbicidal activity; format: in vivo; details: post-emergence, 336 h, Table 3, 140 g ai/ha, read-out: Visual Growth Reduction (%)-14 Days after Application EPHHL
Outline: as §1

ZEAMX: corn (Zea mays) = test: Post-Emergent Test I herbicidal activity; format: in vivo; details: for pest or weed control at 140 g/ha / pest or weed control at 8.75 g/ha / pest or weed control at 17.5 g/ha / pest or weed control at 35 g/ha / pest or weed control at 70 g/ha: Zea mays, post-emergence, 336 h, read-out: Visual Growth Reduction (%)-14 Days after Application ZEAMX; for GR20 ZEAMX: Table 4, growth reduction of 20% of plant growth; for GR20 ZEAMX / GR50 ZEAMX / GR80 ZEAMX: 14 days after application, probit analysis; for GR50 ZEAMX: Table 4, growth reduction of 50% of plant growth; for GR80 ZEAMX: Table 4, growth reduction of 80% of plant growth; for pest or weed control at 8.75 g/ha: Table 4, 8.75 g ai/ha; for pest or weed control at 17.5 g/ha: Table 4, 17.5 g ai/ha; for pest or weed control at 35 g/ha: Table 4, 35 g ai/ha; for pest or weed control at 70 g/ha: Table 4, 70 g ai/ha
Outline: as §1

[5] = tested on: CYPES: yellow nutsedge (Cyperus esculentus); test: Post-Emergent Test I herbicidal activity; format: in vivo; details: post-emergence, 336 h, Table 3, 140 g ai/ha, read-out: Visual Growth Reduction (%)-14 Days after Application CYPES
Outline: as §1

[6] = tested on: CHEAL: lambsquarters (Chenopodium album); test: Post-Emergent Test I herbicidal activity; format: in vivo; details: for pest or weed control at 140 g/ha / pest or weed control at 8.75 g/ha / pest or weed control at 17.5 g/ha / pest or weed control at 35 g/ha / pest or weed control at 70 g/ha: Chenopodium album, post-emergence, 336 h, read-out: Visual Growth Reduction (%)-14 Days after Application CHEAL; for pest or weed control at 140 g/ha: Table 3, 140 g ai/ha; for pest or weed control at 8.75 g/ha: Table 4, 8.75 g ai/ha; for pest or weed control at 17.5 g/ha: Table 4, 17.5 g ai/ha; for pest or weed control at 35 g/ha: Table 4, 35 g ai/ha; for pest or weed control at 70 g/ha: Table 4, 70 g ai/ha; for Visual Growth Reduction (%)-14 Days after Application CHEAL: Table 4, 140 g ai/ha; for GR20 CHEAL: Table 4, growth reduction of 20% of plant growth; for GR20 CHEAL / GR50 CHEAL / GR80 CHEAL: 14 days after application, probit analysis; for GR50 CHEAL: Table 4, growth reduction of 50% of plant growth; for GR80 CHEAL: Table 4, growth reduction of 80% of plant growth
Outline: as §1

Row | Structure (SMILES) | pest or weed control at 140 g/ha [1] | pest or weed control at 140 g/ha ([2]; Table 3, 140 g ai/ha) | pest or weed control at 140 g/ha [3] | pest or weed control at 140 g/ha [4] | pest or weed control at 140 g/ha (ZEAMX: corn (Zea mays); Table 3, 140 g ai/ha) | pest or weed control at 140 g/ha [5] | pest or weed control at 140 g/ha [6] | melting point | pest or weed control at 8.75 g/ha [2] | pest or weed control at 17.5 g/ha [2] | pest or weed control at 35 g/ha [2] | pest or weed control at 70 g/ha [2] | pest or weed control at 140 g/ha ([2]; Table 4, 140 g ai/ha) | GR20 ABUTH [2] | GR50 ABUTH [2] | GR80 ABUTH [2] | GR20 ZEAMX (ZEAMX: corn (Zea mays)) | GR50 ZEAMX (ZEAMX: corn (Zea mays)) | GR80 ZEAMX (ZEAMX: corn (Zea mays)) | pest or weed control at 8.75 g/ha (ZEAMX: corn (Zea mays)) | further results
1 | COC(=O)c1nc(-c2ccc(Cl)c(OC)c2F)c(F)c(N)c1OC [Compound 34] | 10% | 100% | 100% | 100% | 90% | 100% | 100% | 133.5 to 135.5 °C |  |  |  |  |  |  |  |  |  |  |  |  | 
2 | COc1c(C(=O)O)nc(-c2ccc(Cl)c(OC)c2F)c(F)c1N [Compound 45, 4-amino-6-(4-chloro-2-fluoro-3-methoxyphenyl)-5-fluoro-3-methoxypicolinic acid] | 0% | 100% | 100% | 100% | 65% | 100% | 100% | 143 to 146 °C | 90% | 100% | 100% | 100% | 100% | <8.75 g ai/ha | <8.75 g ai/ha | <8.75 g ai/ha | <8.75 g ai/ha | 12.4 g ai/ha | >140 g ai/ha | 50% | pest or weed control at 17.5 g/ha (ZEAMX: corn (Zea mays)): 50%; pest or weed control at 35 g/ha (ZEAMX: corn (Zea mays)): 55%; pest or weed control at 70 g/ha (ZEAMX: corn (Zea mays)): 60%; pest or weed control at 140 g/ha (ZEAMX: corn (Zea mays); Table 4, 140 g ai/ha): 65%; pest or weed control at 8.75 g/ha [6]: 90%; pest or weed control at 17.5 g/ha [6]: 100%; pest or weed control at 35 g/ha [6]: 100%; pest or weed control at 70 g/ha [6]: 100%; Visual Growth Reduction (%)-14 Days after Application CHEAL [6]: 100%; GR20 CHEAL [6]: <8.75 g ai/ha; GR50 CHEAL [6]: <8.75 g ai/ha; GR80 CHEAL [6]: <8.75 g ai/ha
3 | COc1c(C(=O)O)nc(-c2ccc(Cl)cc2)c(F)c1N [Compound 47] | 45% | 100% | 100% | 100% | 85% | 100% | 100% |  | 90% | 95% | 95% | 100% | 100% | <8.75 g ai/ha | <8.75 g ai/ha | <8.75 g ai/ha | <8.75 g ai/ha | 12.6 g ai/ha | 74.1 g ai/ha | 40% | pest or weed control at 17.5 g/ha (ZEAMX: corn (Zea mays)): 55%; pest or weed control at 35 g/ha (ZEAMX: corn (Zea mays)): 75%; pest or weed control at 70 g/ha (ZEAMX: corn (Zea mays)): 80%; pest or weed control at 140 g/ha (ZEAMX: corn (Zea mays); Table 4, 140 g ai/ha): 85%; pest or weed control at 8.75 g/ha [6]: 90%; pest or weed control at 17.5 g/ha [6]: 100%; pest or weed control at 35 g/ha [6]: 100%; pest or weed control at 70 g/ha [6]: 100%; Visual Growth Reduction (%)-14 Days after Application CHEAL [6]: 100%; GR20 CHEAL [6]: <8.75 g ai/ha; GR50 CHEAL [6]: <8.75 g ai/ha; GR80 CHEAL [6]: <8.75 g ai/ha
